Assays:
glucosidase I = target: T1, glucosidase I (Bos taurus, UniProt A0A3Q1M9D9); experiment: Assay for glucosidase I activity (14C-Glc3Man9GlcNAc2 substrate, ConA-Sepharose, scintillation counting); format: biochemical; conditions: affinity purified glucosidase I from calf pancreas microsomes; for inhibition at 1000 µM: at 1 mM concentration, read-out: inhibition of glycosidase I activity
T1 construct: Glucosidase I was solubilized from calf pancreas microsomes; from tissue
T1 sequence (A0A3Q1M9D9 1-839): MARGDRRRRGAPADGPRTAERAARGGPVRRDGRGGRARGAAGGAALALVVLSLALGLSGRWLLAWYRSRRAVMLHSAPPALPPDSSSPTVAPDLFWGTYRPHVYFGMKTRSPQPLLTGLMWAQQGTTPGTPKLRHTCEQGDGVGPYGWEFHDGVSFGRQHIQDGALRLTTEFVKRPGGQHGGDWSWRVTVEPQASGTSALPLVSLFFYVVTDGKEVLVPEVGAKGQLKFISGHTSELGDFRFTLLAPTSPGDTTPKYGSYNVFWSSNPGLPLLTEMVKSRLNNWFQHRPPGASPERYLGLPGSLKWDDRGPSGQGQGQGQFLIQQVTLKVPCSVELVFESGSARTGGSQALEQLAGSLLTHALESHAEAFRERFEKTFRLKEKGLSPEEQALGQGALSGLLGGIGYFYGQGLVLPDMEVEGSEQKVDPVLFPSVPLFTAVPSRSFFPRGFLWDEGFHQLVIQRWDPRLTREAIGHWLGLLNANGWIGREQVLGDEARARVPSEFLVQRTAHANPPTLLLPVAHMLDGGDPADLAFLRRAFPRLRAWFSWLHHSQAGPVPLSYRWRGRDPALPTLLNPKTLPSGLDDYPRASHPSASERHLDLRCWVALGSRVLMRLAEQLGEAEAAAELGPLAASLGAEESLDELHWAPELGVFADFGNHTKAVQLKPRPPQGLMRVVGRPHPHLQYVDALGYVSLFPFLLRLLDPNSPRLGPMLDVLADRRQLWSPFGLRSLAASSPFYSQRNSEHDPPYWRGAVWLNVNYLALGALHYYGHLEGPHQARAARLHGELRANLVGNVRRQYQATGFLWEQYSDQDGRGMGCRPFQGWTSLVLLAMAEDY
Method: Some of the compounds which are modified analogues of the trisaccharides corresponding to the end tail of precursor oligosaccharides Glc3 Man9 GlcNAc2 -PP-Dol, were evaluated as inhibitors of glucosidase I activity. Glucosidase I was purified by a literature procedure as follows. To prepare an affinity matrix, carboxypentyl-deoxynojirimycin was coupled with Affigel 102 according to Shailubhai et al^19. Glucosidase I was solubilized from calf pancreas microsomes, and purified from glucosidase II activity by affinity chromatography according to the same authors.
^14 C-labelled Glc3 Man9 GlcNAc2 -PP-Dol was prepared by the incubation of UDP-[^14 C]Glc with calf pancreas microsomes as described by Herscovien et al^40. Glc3 Man9 GlcNAc2 was released by mild acid hydrolysis and purified by BioGel P4 chromatography.
Affinity purified glucosidase I was assayed as described by Saunier et al.^41 by adsorption of undigested substrate and oligosaccharide product to ConA-Sepharose and scintillation counting of [^14 C]Glc in the column eluent. Oligosaccharides as potential inhibitors were evaluated using castanospermine as a baseline inhibitor.

glucosidase = conditions: cited from earlier work

Structure (SMILES)	inhibition at 1000 µM (glucosidase I) [%]	also measured
COC(=O)CCCCCCCCO[C@H]1O[C@H](CO)[C@@H](O)[C@H](O[C@H]2O[C@H](CO)[C@@H](O)[C@H](O)[C@H]2O[C@H]2O[C@H](CO)[C@@H](O)[C@H](O)[C@H]2O)[C@H]1O [Compound 40, 8-methoxycarbonyloctyl 3-O-[2-O-(α-D-glucopyranosyl)-α-D-glucopyranosyl]-α-D-glucopyranoside]	100	–
COC(=O)CCCCCCCCO[C@H]1O[C@H](CO)[C@@H](O)[C@H](O[C@H]2O[C@H](CO)[C@@H](O)[C@H](O)[C@H]2O[C@H]2O[C@H](CO)[C@@H](O)C[C@H]2O)[C@H]1O [Compound 45, 8-methoxycarbonyloctyl 3-O-[2-O-(3-deoxy-α-D-glucopyranosyl)-α-D-glucopyranosyl]-α-D-glucopyranoside]	50	–
COC(=O)CCCCCCCCO[C@H]1O[C@H](CO)[C@@H](O)[C@H](O[C@H]2O[C@H](CO)[C@@H](O)[C@H](O)[C@H]2O[C@H]2O[C@H](C)[C@@H](O)[C@H](O)[C@H]2O)[C@H]1O [Compound 49, 8-Methoxycarbonyl 3-O-[2-O-(6deoxy-α-D-glucopyranosyl)-α-D-glucopyranosyl]-α-D-glucopyranoside]	–	glucosidase I inhibitory activity (result in words) (glucosidase I): completely eliminated
OC[C@H]1NC[C@H](O)[C@@H](O)[C@@H]1O [deoxynojirimycin]	–	concentration required to induce the inhibitory effect in vitro (glucosidase): at least 1 mmol/l

Source: patent US5929037A, “Modified α-D-Glc.rho.-(1-2)-α-D-Glc.rho.-(1-3)-α-D-Glc.rho.-ana logues” (Alberta Research Council, priority 1995, dated 1999)
